Common to all, as to type: in vivo
Experiment [1] has as its system Setaria faberi (SETFA). Nature of the experiment: Example A pre-emergence herbicidal glasshouse test. The note with it: 312 h, Rate 250 g/ha, evaluated after 13 days, 100=total damage to plant, 0=no damage to plant. In a few lines:
(§1)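 Glasshouse pot assay: 24/16 °C, 14 h light, 65% humidity, twice-daily watering. Spray timing was 1 day after sowing (pre) or 8 days (post); vehicle acetone/water 50:50 with 0.5% Tween 20. Plants were rated 13 days after treatment, 100 meaning total damage.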

Experiment [2] deals with Solanum nigrum (SOLNI). Nature of the experiment: Example A pre-emergence herbicidal glasshouse test. The note with it: Rate 250 g/ha, evaluated after 13 days, 100=total damage to plant, 0=no damage to plant. Summed up:
as §1

Experiment [3] has as its system Alopecurus myosuroides (ALOMY). Nature of the experiment: Example A pre-emergence herbicidal glasshouse test. The note with it: 312 h, Rate 250 g/ha, evaluated after 13 days, 100=total damage to plant, 0=no damage to plant. Summed up:
as §1

The subject of experiment [4] is Amaranthus retroflexus (AMARE). Nature of the experiment: Example A pre-emergence herbicidal glasshouse test. The note with it: 312 h, Rate 250 g/ha, evaluated after 13 days, 100=total damage to plant, 0=no damage to plant. In a few lines:
as §1

In experiment [5] the test system is Avena fatua (AVEFA). Nature of the experiment: Example A pre-emergence herbicidal glasshouse test. The note with it: 312 h, Rate 250 g/ha, evaluated after 13 days, 100=total damage to plant, 0=no damage to plant. Summed up:
as §1

The test system of experiment [6] is Echinochloa crus-galli (ECHCG). Nature of the experiment: Example A pre-emergence herbicidal glasshouse test. The note with it: 312 h, Rate 250 g/ha, evaluated after 13 days, 100=total damage to plant, 0=no damage to plant. Summed up: as §1
In experiment [7] the test system is Setaria faberi (SETFA). Nature of the experiment: Example A post-emergence herbicidal glasshouse test. The note with it: 312 h, evaluated after 13 days, 100=total damage to plant, 0=no damage. In a few lines: as §1
Experiment [8] deals with Solanum nigrum (SOLNI). The experiment is described as above. The note with it: 250 g/ha, evaluated after 13 days, 100=total damage to plant, 0=no damage. Summed up: as §1
The subject of experiment [9] is Alopecurus myosuroides (ALOMY). The experiment is described as above. The note with it: 312 h, evaluated after 13 days, 100=total damage to plant, 0=no damage. In a few lines: as §1
Experiment [10] relates to Amaranthus retroflexus (AMARE). Described as above. The note with it: 312 h, evaluated after 13 days, 100=total damage to plant, 0=no damage. In a few lines: as §1
Experiment [11] deals with Avena fatua (AVEFA). The description is as above. The note with it: 312 h, evaluated after 13 days, 100=total damage to plant, 0=no damage. In a few lines: as §1
The subject of experiment [12] is Echinochloa crus-galli (ECHCG). Described as above. The note with it: 312 h, evaluated after 13 days, 100=total damage to plant, 0=no damage. In a few lines: as §1
The test system of experiment [13] is Setaria faberi (SETFA). Nature of the experiment: Example B pre-emergence herbicidal greenhouse test. The note with it: 480 h, evaluated after 20 days, 100=total damage to plant, 0=no damage. In a few lines: (§2)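 Pot test: glasshouse-sown pots sprayed 1 day after sowing (pre-emergence) or as 10-day-old seedlings (post-emergence) with aqueous spray from an acetone/emulsifier-solvent formulation of technical compound; damage rated 20 days (pre) or 15 days (post) after treatment on 0-100 scale.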

The subject of experiment [14] is Lolium perenne (LOLPE). Nature of the experiment: Example B pre-emergence herbicidal greenhouse test. The note with it: 480 h, evaluated after 20 days, 100=total damage to plant, 0=no damage. Summed up:
as §2

In experiment [15] the test system is Digitaria sanguinalis (DIGSA). Nature of the experiment: Example B pre-emergence herbicidal greenhouse test. The note with it: 480 h, evaluated after 20 days, 100=total damage to plant, 0=no damage. In a few lines:
as §2

Experiment [16] relates to Alopecurus myosuroides (ALOMY). Nature of the experiment: Example B pre-emergence herbicidal greenhouse test. The note with it: 480 h, evaluated after 20 days, 100=total damage to plant, 0=no damage. In a few lines: as §2
Experiment [17] has as its system Avena fatua (AVEFA). Nature of the experiment: Example B pre-emergence herbicidal greenhouse test. The note with it: 480 h, evaluated after 20 days, 100=total damage to plant, 0=no damage. Summed up:
as §2

In experiment [18] the test system is Echinochloa crus-galli (ECHCG). Nature of the experiment: Example B pre-emergence herbicidal greenhouse test. The note with it: 480 h, evaluated after 20 days, 100=total damage to plant, 0=no damage. In a few lines:
as §2

Experiment [19] has as its system Setaria faberi (SETFA). Nature of the experiment: Example B post-emergence herbicidal greenhouse test. The note with it: 360 h, evaluated after 15 days, 100=total damage to plant, 0=no damage. Summed up:
as §2

In experiment [20] the test system is Lolium perenne (LOLPE). The description is as above. The note with it: 360 h, evaluated after 15 days, 100=total damage to plant, 0=no damage. In a few lines:
as §2

For experiment [21], the system named is Digitaria sanguinalis (DIGSA). The experiment is described as above. The note with it: 360 h, evaluated after 15 days, 100=total damage to plant, 0=no damage. In a few lines:
as §2

Experiment [22] relates to Alopecurus myosuroides (ALOMY). The experiment is described as above. The note with it: 360 h, evaluated after 15 days, 100=total damage to plant, 0=no damage. In a few lines: as §2
Experiment [23] concerns Avena fatua (AVEFA). The description is as above. The note with it: 360 h, evaluated after 15 days, 100=total damage to plant, 0=no damage. In a few lines:
as §2

Experiment [24] concerns Echinochloa crus-galli (ECHCG). The description is as above. The note with it: 360 h, evaluated after 15 days, 100=total damage to plant, 0=no damage. Summed up:
as §2

One may read the pest or weed control as how far the test organism was held down. On to `Cc1ccc(-c2ccccc2F)cc1C1=C(O)[C@H]2CC[C@H](C2)C1=O` (single isomer, unassigned) [Compound T16], for which the pest or weed control at 250 g/ha (in the experiment with Setaria faberi (SETFA) [1]; in [3]; in experiment [4]; in the experiment on Avena fatua (AVEFA) [5]; in experiment [6]; in the experiment with Setaria faberi (SETFA) [7]) was 0% throughout. Moreover, the pest or weed control at 250 g/ha (in experiment [9]; in [10]; in the experiment with Avena fatua (AVEFA) [11]; in experiment [12]) was 0% each time. Moreover, the “SOLNI damage to plant” value in the experiment with Solanum nigrum (SOLNI) [2] and in the experiment on Solanum nigrum (SOLNI) [8] was 0 throughout.
Turning to `Cc1cc(C)c(-c2ccc(C)c(C3=C(O)[C@H]4CC[C@H](C4)C3=O)c2)c(C)c1` (single isomer, unassigned) [Compound T15], the pest or weed control at 250 g/ha (in the experiment with Setaria faberi (SETFA) [1]; in [3]; in experiment [4]; with Avena fatua (AVEFA) [5]; in the experiment on Setaria faberi (SETFA) [7]; in [10]) was 0% throughout. Moreover, the “SOLNI damage to plant” value in the experiment on Solanum nigrum (SOLNI) [8] is recorded as 0.
Take `Cc1ccc(-c2ccc(F)cc2)cc1C1=C(O)[C@H]2CC[C@H](C2)C1=O` (single isomer, unassigned) [Compound T17]: the pest or weed control at 250 g/ha in the experiment on Setaria faberi (SETFA) [1] worked out at 80%; in [3], 0%; in [4] it was 0%; in the experiment with Avena fatua (AVEFA) [5], 10%; in experiment [6] it was 50%; in the experiment with Setaria faberi (SETFA) [7] it was 80%. Also, the pest or weed control at 250 g/ha in experiment [9] amounted to 10%; in experiment [10] it was 0%; in the experiment with Avena fatua (AVEFA) [11], 0%; in experiment [12] it was 70%. Besides, the “SOLNI damage to plant” value in the experiment on Solanum nigrum (SOLNI) [2] and in the experiment with Solanum nigrum (SOLNI) [8] was 0 each time.
With `CCc1ccc(-c2ccc(Cl)cc2)cc1C1=C(O)[C@H]2CC[C@H](C2)C1=O` [Compound T4, 3-(4′-chloro-4-ethylbiphen-3-yl)bicyclo[3.2.1]octane-2,4-dione], the pest or weed control at 250 g/ha in the experiment on Setaria faberi (SETFA) [13] was determined as 100%; with Lolium perenne (LOLPE) [14], 100%; in [15], 100%; in [16], 100%; in the experiment on Avena fatua (AVEFA) [17], 80%; in experiment [18] it was 100%. In addition, the pest or weed control at 250 g/ha with Setaria faberi (SETFA) [1] worked out at 90%; in experiment [3], 50%; in [4] it was 0%; in the experiment on Avena fatua (AVEFA) [5], 50%; in experiment [6], 100%; in the experiment with Setaria faberi (SETFA) [7], 100%. For the same molecule, the pest or weed control at 250 g/ha was 90% in experiment [9], 0% in [10], 100% with Avena fatua (AVEFA) [11] and 100% in experiment [12]. Moreover, the “SOLNI damage to plant” value with Solanum nigrum (SOLNI) [2] and in the experiment with Solanum nigrum (SOLNI) [8] was 0 in each case. Moreover, the pest or weed control at 125 g/ha with Setaria faberi (SETFA) [19] is 100%; in the experiment on Lolium perenne (LOLPE) [20], 100%; in [21] it was 100%; in experiment [22], 80%; with Avena fatua (AVEFA) [23] it was 100%; in [24], 100%.
`CCc1ccc(-c2ccc(Cl)c(C#N)c2)cc1C1=C(O)[C@H]2CC[C@H](C2)C1=O` (single isomer, unassigned) [Compound T34]: the pest or weed control at 250 g/ha with Setaria faberi (SETFA) [13] is 90%; in the experiment with Lolium perenne (LOLPE) [14] it was 40%; in experiment [15] it was 90%; in experiment [16] it was 40%; in the experiment on Avena fatua (AVEFA) [17], 40%; in experiment [18], 90%. The pest or weed control at 250 g/ha with Setaria faberi (SETFA) [1] is 100%; in experiment [3], 60%; in experiment [4], 0%; in the experiment on Avena fatua (AVEFA) [5], 0%; in [6], 70%; with Setaria faberi (SETFA) [7], 90%. In addition, the pest or weed control at 250 g/ha is 70% in experiment [9], 0% in experiment [10], 70% in the experiment with Avena fatua (AVEFA) [11] and 100% in [12]. Besides, the pest or weed control at 125 g/ha with Setaria faberi (SETFA) [19] stood at 40%; in the experiment with Lolium perenne (LOLPE) [20], 0%; in [21] it was 40%; in [22], 0%; in the experiment with Avena fatua (AVEFA) [23], 10%; in experiment [24], 80%.
With `Cc1ccc(-c2cccc(F)c2)cc1C1=C(O)[C@H]2CC[C@H](C2)C1=O` (single isomer, unassigned) [Compound T13], the pest or weed control at 250 g/ha (with Setaria faberi (SETFA) [1]; in experiment [3]; in [4]; in the experiment with Avena fatua (AVEFA) [5]; in experiment [6]; in the experiment with Setaria faberi (SETFA) [7]) was 0% throughout. In addition, the pest or weed control at 250 g/ha in [9] worked out at 0%; in experiment [10], 0%; in the experiment with Avena fatua (AVEFA) [11] it was 0%; in experiment [12] it was 10%. The “SOLNI damage to plant” value in the experiment on Solanum nigrum (SOLNI) [2] and with Solanum nigrum (SOLNI) [8] was 0 each time.
For `CCc1cc(-c2ccc(Cl)cc2)cc(CC)c1C1=C(O)[C@H]2CC[C@H](C2)C1=O` [Compound T62, 3-(4′-chloro-3,5-diethylbiphen-4-yl)bicyclo[3.2.1]octane-2,4-dione], the pest or weed control at 250 g/ha worked out at 100% in the experiment with Setaria faberi (SETFA) [13]; 100% in the experiment on Lolium perenne (LOLPE) [14]; 100% in [15]; 100% in [16]; 50% in the experiment on Avena fatua (AVEFA) [17]; 100% in experiment [18]. Besides, the pest or weed control at 250 g/ha with Setaria faberi (SETFA) [1] is 100%; in [3] it was 80%; in [4], 20%; in the experiment on Avena fatua (AVEFA) [5], 80%; in experiment [6], 100%; with Setaria faberi (SETFA) [7], 100%. Besides, the pest or weed control at 250 g/ha in experiment [9] was 100%; in experiment [10] it was 0%; in the experiment with Avena fatua (AVEFA) [11] it was 90%; in experiment [12], 100%. In addition, the pest or weed control at 125 g/ha in the experiment on Setaria faberi (SETFA) [19] turned out to be 100%; in the experiment on Lolium perenne (LOLPE) [20], 50%; in experiment [21], 100%; in experiment [22], 60%; in the experiment on Avena fatua (AVEFA) [23], 60%; in [24], 100%.
For the molecule `CCc1ccc(-c2ccc(C)c(C3=C(O)[C@H]4CC[C@H](C4)C3=O)c2)cc1` (single isomer, unassigned) [Compound T14], the pest or weed control at 250 g/ha was 0% in the experiment on Setaria faberi (SETFA) [1]; 0% in experiment [3]; 0% in [4]; 0% in the experiment with Avena fatua (AVEFA) [5]; 0% in [6]; 70% in the experiment on Setaria faberi (SETFA) [7]. For the same molecule, the pest or weed control at 250 g/ha was found to be 0% in experiment [9], 0% in [10], 0% with Avena fatua (AVEFA) [11] and 30% in [12]. Further, the “SOLNI damage to plant” value with Solanum nigrum (SOLNI) [2] and in the experiment with Solanum nigrum (SOLNI) [8] was 0 each time.

The values above are taken from patent US8828908B2, “Herbicidally active bicyclic 1,3-dione compounds” (Syngenta Limited, priority 2007, dated 2014).
